In test [1] the test system is DU145 human prostate cancer cells. In words: Cell scattering in 2D monolayer cultures. It is filed as cell-based. Particulars: 16 h, listed as HVS. As to the method: (§1) FIG. 6. (A) Effect of HVS on HGF-induced migration of the highly metastatic MDA-MB-231 human breast cancer cells in wound healing assay. […] Vertical bars indicate the percentage of wound closure at 24 h after wounding, calculated relative to the wound distance at zero time±SEM of N=6 in each treatment group. SU11274 and (−)-oleocanthal were used as positive controls at 10 μM. Right panel represents photomicrographs of wound healing assay showing HVS treatment at three different concentrations (1.25, 2.5, and 5 μM) blocked the migration of MDA-MB-231 cells in response to HGF stimulation, as compared to DMSO as a vehicle control. (B) Effect of HVS on HGF-induced cell invasion of the highly aggressive MDA-MB-231 human breast cancer cells using Cultrex® BME cell invasion assay. The cells were treated with different concentrations of HVS for 24 h. Vertical bars indicate the percentage of cells invading the basement membrane at the end of treatment period±SEM of N=3 in each treatment group. (−)-Oleocanthal was used as a positive control at 20 μM dose.*P<0.05 as compared with vehicle-treated control. (C) Effect of HVS on HGF-induced scattering of the DU145 human prostate cancer cells in 2D monolayer cultures, compared to DMSO as vehicle control. Cells were treated with indicated concentrations of HVS for 30 minutes in serum-free media. […]

The test system of test [2] is MDA-MB-231, MDA-MB-468, MCF-7 and BT-474 cells. In words: Growth of breast cancer cells without HGF, MTT assay. The class given is cell-based, human. The following applies: similar treatment doses; no HGF. The protocol: FIG. 3. (A) Effect of HVS treatment on HGF-stimulated growth of Met-dependent MDA-MB-231, MDA-MB-468, MCF-7. and BT-474 breast cancer cells after 72 h treatment period, compared to DMSO as vehicle control. Viable cell count was determined using MTT assay. Vertical bars indicate the mean cell count±SEM of N=3 in each treatment group; (−)-oleocanthal was used as a positive control at 20 μM. (B) Effect of HVS treatment on HGF-stimulated growth of Met-independent T-47D breast cancer cells after 72 h treatment period. Viable cell count was determined using MTT assay. Vertical bars indicate the mean cell count±SEM of N=3 in each treatment group. (C) Cytotoxic effects of HVS on the highly metastatic MDA-MB-231 breast cancer cells at two different concentrations (30 and 60 μM) using LDH cytotoxicity assay. Triton X-100 was used as a positive control to cause the breakdown of all the cells and induce the total possible LDH release. (D) Effects of HVS treatment on the viability of non-tumorigenic human MCF10A mammary epithelial cells after a 24 h treatment period, compared to DMSO as vehicle control. (E) As in panel (A) but without HGF. […] Viable cell count was determined using MTT assay. Vertical bars indicate the mean cell count±SEM of N=3 in each treatment group; doxorubicin was used as a positive control at 10 μM dose. *P<0.05 as compared with vehicle treated control.
[…]. […]

In test [3] the test system is MDA-MB-231 human breast cancer cells. In words: Wound healing assay, HGF-induced migration. The class given is cell-based. The following applies: wound closure at 24 h. The protocol:
as §1

Test [4] concerns DU145 human prostate cancer cells (pMet, pAkt, pErk). In words: Western blot of HGF-induced signaling in prostate cancer cells. The class given is cell-based. Particulars: 30 min pretreatment, 30 min HGF. The protocol:
FIG. 4. A) Effect of HVS treatment on HGF-induced c-Met activation in human breast cancer cells using Western Blot analysis. Treatment with HVS caused a significant, dose-responsive inhibition of HGF-induced c-Met phosphorylation in MDA-MB-231, MCF-7, and BT-474 mammary tumor cells with no effect on total c-Met levels after treatment for 72 h, as compared to their respective vehicle-treated control groups. The visualization of β-tubulin was used as a loading control. (B) Effect of HVS on HGF-induced c-Met activation and its downstream mitogenic signaling in DU145 human prostate cancer cells, as compared to vehicle-treated control group, using Western Blot analysis. Cells were pre-treated for 30 minutes with either HVS at 0.1, 0.3, 1, and 5 μM or (−)-oleocanthal at 5, 10, and 20 μM doses in serum-free 0.4-media. 33 ng/mL HGF was then added for 30 minutes. Whole cell lysates were collected and assayed by Western Blot. The visualization of α-tubulin was used as a loading control. Representative Western Blots from each experiment are shown, N=3.
DU145 prostate tumor cells were pretreated for 30 minutes with the indicated compounds. Following pretreatment, cells were pulsed for thirty minutes with HGF, cell lysates were prepared and western blot analysis was performed to identify pMet, pAkt, pErk and tubulin.

The test system of test [5] is MDA-MB-231 breast cancer cells. In words: Western blot of c-Met downstream mitogenic and FAK/Brk/paxillin/Rac1 signaling. It is filed as cell-based, human. The protocol:
FIG. 5. Effects of HVS treatment on c-Met downstream mitogenic and FAK/Brk/paxillin/Rac1 signaling pathways in human MDA-MB-231 breast cancer cells after a treatment period of 72 h. (A) Western Blot analysis showing HVS treatment effects on c-Met downstream mitogenic signaling molecules, Akt and MAPK, using different treatment doses, compared to the vehicle-treated control group. (B) Western Blot analysis showing HVS treatment effects on FAK/Brk/Paxillin/Rac1 signaling pathway using different treatment doses, compared to the vehicle-treated control group. The visualization of β-tubulin was used as a loading control. Representative Western Blots from each experiment are shown, N=3.
On the other hand, HVS had little or no effects on the total levels of FAK, Brk, paxillin, and Rac1 in treated cells. Exposure to antiproliferative concentrations of 8 blocked HGF-induced phosphorylation and activation of Akt and MAPK in MDA-MB-231 mammary cancer cells (FIG. 5). Activation of c-Met prevents apoptosis and maintains cancer cell survival through activation of PI3K and subsequent Akt-NFκB activation.

SMILES strings stand for the structures. Entries after “also recorded” stand apart in the source; their conditions may differ.

Regarding `COc1cc(CCOC(=O)/C=C/c2cc(OC)c(O)c(OC)c2)ccc1O` [Compound 8, (E)-4-hydroxy-3-methoxyph-ethyl 3-(4-hydroxy-3,5-dimethoxyphenyl) acrylate], the HGF-induced cell scattering result in test [1] (33 ng/mL HGF) was “significantly reduced; also recorded: appeared to block”. Besides, the EGF-induced cell scattering result in test [1] (100 ng/mL EGF, similar treatment doses) is recorded as “do not block; also recorded: not inhibited”. Moreover, the “effect on growth in the absence of HGF” value in test [2] is reported as “no discernable effects”. Further, the HGF-induced migration entry in test [3] is “appears to inhibit”. Besides, in test [4], the “HGF-induced (Met dependent) signaling” value is reported as “effective even at submicromolar concentrations”. Moreover, the “FAK, Brk, paxillin and Rac1 phosphorylation (activation)” value in test [5] (72-h treatment) is reported as “dose-dependently suppressed”. Moreover, the “HGF-induced phosphorylation and activation of Akt and MAPK” value in test [5] (antiproliferative concentrations) is given as “blocked”.

These data come from patent US10959968B2, “Methods for treating c-Met-dependent cancers” (Board of Supervisors of Louisiana State University and …, priority 2016, dated 2021).
